Data on 1 molecule can be found in paper PMC12041489 (Scientific Reports, 2025).

One data set addresses tyrosinase (Agaricus bisporus, UniProt C7FF04). In words: Fluorescence quenching of tyrosinase. Format: binding, mushroom. Particulars: for Kq / Ksv: λex 280 nm.
For data set [1], the target named is T1, mushroom tyrosinase (Agaricus bisporus, UniProt C7FF04). In words: biochemical.
The subject of another data set is fresh-cut apples. In words: Anti-browning experiment on fresh-cut apples. The arrangement: species or system Fuji apples. Particulars: stored at 5 °C for 4 days.
Data set [2] concerns human umbilical vein endothelial cells (HUVEC). The experiment in a line: MTT assay for cell viability. It counts as cell-based. The settings on record: 24-h treatment, up to 32 µM.
The target of data set [3] is T1, mushroom tyrosinase. The experiment in a line: Tyrosinase kinetic analysis. It counts as biochemical.
Data set [4] in a line: ABTS radical cation scavenging activity assay. The settings on record: read-out: ABTS radical scavenging IC50.
Data set [5] is described as follows: DPPH free radical scavenging activity assay. Particulars: read-out: DPPH radical scavenging IC50.

Entries after “also recorded” stand apart in the source; their conditions may differ.

Chain of tyrosinase (C7FF04 1-392 limits assumed): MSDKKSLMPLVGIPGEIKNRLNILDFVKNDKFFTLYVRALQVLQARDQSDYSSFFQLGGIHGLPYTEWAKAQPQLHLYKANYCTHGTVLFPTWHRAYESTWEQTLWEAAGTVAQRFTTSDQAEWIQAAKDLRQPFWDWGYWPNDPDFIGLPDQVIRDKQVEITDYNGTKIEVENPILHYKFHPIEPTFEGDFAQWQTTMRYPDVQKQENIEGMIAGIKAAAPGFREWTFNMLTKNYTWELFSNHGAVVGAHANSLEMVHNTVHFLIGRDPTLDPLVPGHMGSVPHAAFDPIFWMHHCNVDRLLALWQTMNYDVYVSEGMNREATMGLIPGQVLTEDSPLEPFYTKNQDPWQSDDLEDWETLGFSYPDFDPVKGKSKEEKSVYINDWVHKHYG
T1 sequence (C7FF04 1-392 limits assumed): as above

Turning to `COc1ccc(C(C)=O)c(OCc2cn(Cc3cc(=O)c(O)co3)nn2)c1` [Compound 13t, 2-((4-((2-acetyl-5-methoxyphenoxy)methyl)-1H-1,2,3-triazol-1-yl)methyl)-5-hydroxy-4H-pyran-4-one], the predominant quenching mechanism entry on tyrosinase (Stern-Volmer plots at 298, 303 and 310 K) was “dynamic quenching”. Besides, the Kq on tyrosinase (T 298 K) was determined as 1.952e+12 M⁻¹ s⁻¹; at tyrosinase (T 303 K), 2.478e+12 M⁻¹ s⁻¹; at tyrosinase (T 310 K), 2.823e+12 M⁻¹ s⁻¹. Moreover, the Ksv at tyrosinase (T 298 K) was 0.01952 L/µmol; on tyrosinase (T 303 K), 0.02478 L/µmol; at tyrosinase (T 310 K), 0.02823 L/µmol. In addition, the IC50 was 1.363 ± 0.003 µM against mushroom tyrosinase [1], 45.64 ± 0.25 µM in data set [4] and 57.9 ± 0.28 µM in data set [5]. The “L* value of fresh-cut apples” value with fresh-cut apples (25 µM) turned out to be 65.91; in the data set on fresh-cut apples (50 µM), 66.59; in the data set on fresh-cut apples (100 µM), 67.87. For the same molecule, the “toxicity to HUVEC (cell viability)” value in data set [2] is given as “no discernible toxicity; also recorded: no evident toxicity”. The same molecule displayed a Ki at mushroom tyrosinase [3] of 0.365 µM. For the same molecule, the inhibition type result against mushroom tyrosinase [3] (Lineweaver–Burk double reciprocal plots) is recorded as “mixed-type inhibitor”.
